“Also recorded” adds a separate entry of the source.
Tests used:
[1] = tested on: FR-positive IGROV tumor xenografts; assay: Imaging and biodistribution, IGROV ovarian xenograft; type: in vivo, mice; conditions: 2 nmol, 2 h
Experimental: (§1) Seven-week-old female nu/nu mice were inoculated subcutaneously with KB (1.0×10^6/mouse in RPM11640 medium), IGROV (5.0×10^6/mouse in 50% high concentrated matrigel+RPM11640 medium), SKOV3 (5.0×10^6/mouse in RPM11640 medium), OVCAR3 (5.0×10^6/mouse in RPM11640 medium), MDA-MB231 (1.0×10^6/mouse in RPM11640 medium), M109 (1.0×10^6/mouse in RPM11640 medium) or A549 cells (2.0×10^6/mouse in RPM11640 medium) on the shoulder. Growth of the tumors was measured in perpendicular directions every 2 days using a caliper (body weights were monitored on the same schedule), and the volumes of the tumors were calculated as 0.5×L×W^2 (L=longest axis and W=axis perpendicular to L in millimeters). Once tumors reached approximately 300-400 mm3 in volume, animals (3-5 mice/group) were intravenously injected with the compound of interest in PBS (for dose escalation in KB tumor model: 0.3-90 nmol, for time dependent in KB tumor model: 2 or 10 nmol, and for general whole body imaging and biodistribution for all tumor models: 2 nmol, in 100 μL in PBS per mouse). For whole body imaging and biodistribution studies, animals were euthanized 2 hours after administration of the compound of interest by CO2 asphyxiation. For time dependent studies, animals were imaged under anesthesia using isoflurane. Whole body imaging (intact tumor) experiments was then performed using a Caliper IVIS Lumina II Imaging Station with Living Image 4.0 software (PerkinElmer Inc, MA).
(§2) Following whole body imaging, animals were dissected and selected tissues (heart, lung, liver, spleen, kidneys, stomach, small intestine, large intestine, muscle, skin, and tumor) were analyzed for fluorescence activity using IVIS imager using same settings as in whole body imaging.

[2] = tested on: FR-positive SKOV3 orthotopic tumor; assay: Imaging and biodistribution, SKOV3 ovarian orthotopic model; type: in vivo, mice; conditions: 2 nmol, 2 h
Experimental: (§3) Ovarian cancer was developed through surgical implantation of ovarian cancer cell lines near the ovarian bursa of the mouse. Seven-week-old female athymic nude mice were given 1-5% isoflurane for anesthesia and subcutaneous injection of 5 mg/kg meloxicam preoperatively for analgesia. The mice were placed dorsal side up and washed above the right ovary (just lateral to the epaxial muscles and ˜1.15 cm caudal to the rib cage) with a chlorhexidine scrub to ensure a sterile area for incision. After an insertion was made using scalpel through the skin, the peritoneal lining was lifted to make a small incision using a scissor and widened using a forceps. The ovarian fat pad was carefully lifted out and placed on a wetted gauze pad adjacent to the incision. Ovarian cancer cells (50,000 cells in 5 μL) were injected between the bursa and the ovary using a 30 gage needle. After placing the ovarian fat pad back into the body cavity, the body wall was closed using 3-0 or 4-0 vicryl and the skin was closed using staples.
as §2

[3] = tested on: FR-positive L1210A tumors; assay: Imaging and biodistribution, L1210A metastatic model (OTL38); type: in vivo, mice; conditions: 2 nmol, 2 h
Experimental: (§4) One million (1×106) of either L1210A or MDA-MB231 cancer cells per mouse (cancer cells/mouse) were administered via tail vein injection into the mice. Tumor growth was monitored every other day using a Caliper IVIS Lumina II Imaging Station with Living Image 4.0 software (PerkinElmer Inc.).
as §2

[4] = tested on: FR-positive MDA-MB 231 orthotopic tumors; assay: Imaging and biodistribution, MDA-MB 231 orthotopic model; type: in vivo, mice; conditions: 2 nmol, 2 h
Experimental: Breast cancer was developed by implanting breast cancer cells in the […] fat pad of the mouse.
as §2

[5] = Chemical and optical properties of NIR dyes (Table 1); type: physicochemical
[6] = tested on: FR-positive MDA-MB 231 tumor xenografts; assay: Imaging and biodistribution, MDA-MB 231 breast xenograft; type: in vivo, mice
Experimental: as §1, §2

[7] = tested on: FR-positive IGROV orthotopic ovary tumor; assay: Imaging and biodistribution, IGROV ovarian orthotopic model; type: in vivo, mice; conditions: 2 nmol, 2 h
Experimental: as §3, §2

[8] = tested on: folate receptor negative A549 tumor xenografts; assay: Whole body imaging and biodistribution, folate receptor-negative A549 tumor xenografts; type: in vivo, mice; conditions: for specificity for folate receptor (conclusion): FR-negative A549 xenografts
Experimental: Seven-week-old female nu/nu mice were inoculated subcutaneously with A549 cells (1.0×10^6/mouse in RPM11640 medium) on the shoulder. Growth of the tumors was measured in perpendicular directions every 2 days using a caliper (body weights were monitored on the same schedule), and the volumes of the tumors were calculated as 0.5×L×W^2 (L=longest axis and W=axis perpendicular to L in millimeters). Once tumors reached between 400 and 500 mm3 in volume, animals (6 mice/group) were intravenously injected with 10 nmol of OTL-0038 in phosphate buffered saline (100 μL). After 2.5 h, animals were sacrificed by CO2 asphyxiation. Whole body imaging (intact tumor) experiments were then performed using a Caliper IVIS Lumina II Imaging Station with Living Image 4.0 software (PerkinElmer Inc, MA). Settings for imaging:—lamp level: medium; excitation: 745 nm; emission: ICG (indocyanine green); epi illumination; binning: 4 (M), FOV=12.5; f-stop=2; acquisition time=1 s.
Following whole body imaging, animals were dissected and selected tissues (heart, lung, liver, spleen, kidneys, stomach, small intestine, large intestine, muscle, skin, tumor) were analyzed for fluorescence activity using IVIS imager as before. Settings for imaging:—lamp level: medium; excitation: 745 nm; emission: ICG; epi illumination; binning: 4 (M), FOV=12.5; f-stop=2; acquisition time=1 s.
as §1, §2

[9] = tested on: breast cancer cells metastasized to lung; assay: Imaging, MDA-MB 231 metastatic model; type: in vivo, mice; conditions: 2 nmol, 2 h
Experimental: as §4

With `CC1(C)C(/C=C/C2=C(Oc3ccc(C[C@H](NC(=O)c4ccc(NCc5cnc6nc(N)[nH]c(=O)c6n5)cc4)C(=O)[O-])cc3)C(=C/C=C3\N(CCCCS(=O)(=O)[O-])c4ccc(S(=O)(=O)[O-])cc4C3(C)C)/CCC2)=[N+](CCCCS(=O)(=O)[O-])c2ccc(S(=O)(=O)[O-])cc21.[H+].[H+].[H+].[H+]` [OTL-0038, Pte-Tyr-S0456] as the molecule, how does the ex-vivo tissue biodistribution [1] read?
The ex-vivo tissue biodistribution was “highest fluorescence intensities were observed in FR-positive tumors and kidneys”.

And the tumor-to-normal tissue ratios [1]?
Its tumor-to-normal tissue ratios is “excellent tumor-to-normal tissue ratios”.

And the “whole body imaging: accumulation” value [1]?
Its value is “accumulated mainly in the FR-positive IGROV tumor xenografts”.

What about the “accumulation (tissue biodistribution)” value [2] of the same molecule?
Its value is “accumulated mainly in the ovary with FR-positive SKOV3 orthotopic tumor”.

And the tumor-to-normal tissue ratios [2]?
Its tumor-to-normal tissue ratios is “excellent tumor-to-normal tissue ratios”.

What about the tumor-to-normal tissue ratios [3] of the same molecule?
Its tumor-to-normal tissue ratios is “excellent tumor-to-normal tissue ratios”.

What about the “whole body imaging: accumulation” value [3] of the same molecule?
The value was “accumulated mainly in the FR-positive L1210A tumors metastasize to the liver, lung and spleen”.

What about the ex-vivo tissue biodistribution [4] of the same molecule?
The ex-vivo tissue biodistribution was “highest fluorescence intensities were observed in FR-positive tumors and kidneys”.

And the tumor-to-normal tissue ratios [4]?
The tumor-to-normal tissue ratios was “excellent tumor-to-normal tissue ratios”.

And the “whole body imaging: accumulation” value [4]?
The value was “accumulated mainly in the FR-positive MDA-MB 231 orthotopic tumors”.

What about the “E” value [5] of the same molecule?
Its value is 272000 M⁻¹ cm⁻¹.

And the “Q (%)” value [5]?
Its value is 15.6%.

What about the “Stokes Shift (nm)” value [5] of the same molecule?
The value was 20 nm.

And the “λem (nm)” value [5]?
The value was 776 nm.

And the “λex (nm)” value [5]?
The value was 796 nm.

And the ex-vivo tissue biodistribution ([6]; 2 nmol, 2 h)?
Its ex-vivo tissue biodistribution is “highest fluorescence intensities were observed in FR-positive tumors and kidneys”.

And the tumor-to-normal tissue ratios ([6]; 2 nmol, 2 h)?
The tumor-to-normal tissue ratios was “excellent tumor-to-normal tissue ratios”.

And the “whole body imaging: accumulation” value ([6]; 2 nmol, 2 h, listed as OTL38)?
Its value is “accumulated mainly in the FR-positive MDA-MB 231 tumor xenografts; also recorded: mainly accumulated in FR-positive MDA-MB 231 tumor xenografts and kidneys”.

What about the “accumulation in tumor and kidneys after blocking the FR” value ([6]; 100 fold excess of folic acid prior to 2 nmol, 2 h) of the same molecule?
The value was “inhibited by the administration of 100 fold excess of folic acid”.

What about the “specificity for FR (conclusion)” value ([6]; blocking with excess folic acid) of the same molecule?
The value was “highly specific for FR”.

And the “accumulation (tissue biodistribution)” value [7]?
The value was “accumulated mainly in the FR-positive IGROV orthotopic ovary tumor”.

And the tumor-to-normal tissue ratios [7]?
The tumor-to-normal tissue ratios was “excellent tumor-to-normal tissue ratios”.

What about the tissue biodistribution ([8]; 2 nmol i.v., 2 h) of the same molecule?
The tissue biodistribution was “no fluorescence was observed in FR-negative tumors”.

What about the “whole body imaging: accumulation” value ([8]; 2 nmol i.v., 2 h) of the same molecule?
The value was “did not accumulated in the FR-negative tumors”.

What about the “whole body imaging: accumulation” value ([8]; 10 nmol i.v., 2.5 h) of the same molecule?
The value was “did not accumulated in the folate receptor negative tumors”.

What about the “specificity for folate receptor (conclusion)” value [8] of the same molecule?
The value was “highly specific for folate receptor”.

What about the “specificity for folate receptor (conclusion)” value ([8]; listed as OTL38) of the same molecule?
The value was “highly specific for FR”.

And the accumulation [9]?
Its accumulation is “mainly accumulated in the breast cancer cells metastasized to lung”.

— patent publication US12133900B2, “Synthesis and composition of amino acid linking groups conjugated to compounds used for the targeted imaging of tumors” (Purdue Research Foundation, priority 2013, dated 2024)
